Laboratory results published in ChEMBL document CHEMBL1133086, “Design, synthesis, and X-ray crystal structure of a potent dual inhibitor of thymidylate synthase and dihydrofolate reductase as an antitumor agent” (J Med Chem, 2000).

Legend:
CCRF-CEM [1] = assay: Growth inhibition of human T-lymphoblastic leukemia cell line CCRF-CEM in culture; assay type: functional; conditions: read-out: ED50 (the source's name)
CCRF-CEM [2] = assay: Tested for their growth inhibition of CCRF-CEM human leukemia subline resistant as a result of increase in wild type DHFR protein and activity.; assay type: functional, cell-based
Dihydrofolate reductase [3] = biological target: T1, Dihydrofolate reductase (Homo sapiens, UniProt P00374); assay: Inhibitory concentration against isolated human Dihydrofolate reductase
T1 sequence (P00374 whole entry): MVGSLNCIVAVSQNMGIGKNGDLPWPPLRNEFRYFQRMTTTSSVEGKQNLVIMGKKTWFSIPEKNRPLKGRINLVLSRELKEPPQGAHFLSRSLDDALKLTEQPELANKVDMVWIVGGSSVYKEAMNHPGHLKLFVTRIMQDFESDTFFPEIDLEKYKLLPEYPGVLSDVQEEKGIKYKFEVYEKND

SF-539 = assay: Cytotoxicity was tested against CNS cancer SF-539 tumor cell lines.; assay type: functional; conditions: Homo sapiens
NCI-H460 = assay: Cytotoxicity against non small cell lung cancer NCI-H460 tumor cell lines.; assay type: functional; conditions: Homo sapiens
Thymidylate synthase [4] = biological target: T2, Thymidylate synthase (Homo sapiens, UniProt P04818); assay: Inhibitory concentration against isolated Thymidylate synthase
HCC 2998 = assay: Cytotoxicity against colon cancer HCC2998 tumor cell lines.; assay type: functional; conditions: Homo sapiens
Thymidylate synthase [5] = biological target: Thymidylate synthase (Rattus norvegicus, UniProt P45352); assay: Inhibitory concentration against isolated rat thymidylate synthase
MOLT-4 = assay: Cytotoxicity against leukemia MOLT-4 tumor cell lines.; assay type: functional; conditions: Homo sapiens
CCRF-CEM [6] = assay: Tested for their growth inhibition of CCRF-CEM human leukemia subline resistant as a result of decrease in uptake.; assay type: functional, cell-based
carcinoma cell line [7] = assay: Tested for their inhibition of growth of FaDu head on carcinoma cell lines.; assay type: functional, cell-based; conditions: Homo sapiens
HCT-116 = assay: Cytotoxicity was tested against colon cancer HCT116 tumor cell lines.; assay type: functional; conditions: Homo sapiens
MCF7 = assay: Cytotoxicity was tested against breast cancer MCF-7 tumor cell lines.; assay type: functional; conditions: Homo sapiens
Homo sapiens [8] = species on record: Homo sapiens; assay: The maximum velocity at which substrate concentration is stabilised is determined for compound as substrate for recombinant human folyl-poly-glutamate synthase (FPGS); assay type: ADME; conditions: in vivo
Dihydrofolate reductase [9] = biological target: Dihydrofolate reductase (Lactobacillus casei, UniProt P00381); assay: Inhibitory concentration against isolated Lactobacillus casei Dihydrofolate reductase; design: species or system Lacticaseibacillus casei
carcinoma cell line [10] = assay: Tested for their inhibition of growth of CCRF-CEM human leukemia on carcinoma cell lines.; assay type: functional, cell-based
Dihydrofolate reductase [11] = biological target: T3, Dihydrofolate reductase (Pneumocystis carinii, UniProt P16184)
T3 sequence (P16184 whole entry): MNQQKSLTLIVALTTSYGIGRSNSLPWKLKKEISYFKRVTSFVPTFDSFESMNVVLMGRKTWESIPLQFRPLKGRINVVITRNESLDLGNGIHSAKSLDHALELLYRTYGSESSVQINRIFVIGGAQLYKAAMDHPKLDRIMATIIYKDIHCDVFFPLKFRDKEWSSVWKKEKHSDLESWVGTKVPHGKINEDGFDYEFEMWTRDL
Description: Inhibitory concentration against isolated Pneumocystis carinii DHFR (Dihydrofolate reductase)

ACHN = assay: Cytotoxicity was tested against renal cancer ACHN tumor cell lines.; assay type: functional; conditions: Homo sapiens
Thymidylate synthase [12] = biological target: T4, Thymidylate synthase (Lactobacillus casei, UniProt P00469); assay: Inhibitory concentration against isolated Lactobacillus casei Thymidylate synthase; design: species or system Lacticaseibacillus casei
T4 sequence (P00469 whole entry): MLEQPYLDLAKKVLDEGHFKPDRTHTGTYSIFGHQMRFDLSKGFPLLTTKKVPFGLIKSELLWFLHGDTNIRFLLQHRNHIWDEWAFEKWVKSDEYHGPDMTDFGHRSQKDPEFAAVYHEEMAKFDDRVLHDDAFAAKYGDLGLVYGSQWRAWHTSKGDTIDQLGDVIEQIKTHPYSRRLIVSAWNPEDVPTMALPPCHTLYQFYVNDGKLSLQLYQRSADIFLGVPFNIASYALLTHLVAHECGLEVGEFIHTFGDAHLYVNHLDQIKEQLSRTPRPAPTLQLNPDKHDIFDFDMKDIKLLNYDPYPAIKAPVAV

CCRF-CEM [13] = assay: Concentration required to inhibit growth against CCRF-CEM cell; assay type: functional, cell-based; conditions: Homo sapiens
Thymidylate synthase [14] = biological target: Thymidylate synthase (Escherichia coli, UniProt C3SWJ7); assay: Inhibitory concentration against isolated Escherichia coli Thymidylate synthase
CCRF-CEM [15] = assay: Tested for their growth inhibition of CCRF-CEM human leukemia subline resistant as a result of decrease polyglutamylation.; assay type: functional, cell-based
[16] = biological target: T5, Bifunctional dihydrofolate reductase-thymidylate synthase (Toxoplasma gondii, UniProt Q07422)
T5 sequence (Q07422 whole entry): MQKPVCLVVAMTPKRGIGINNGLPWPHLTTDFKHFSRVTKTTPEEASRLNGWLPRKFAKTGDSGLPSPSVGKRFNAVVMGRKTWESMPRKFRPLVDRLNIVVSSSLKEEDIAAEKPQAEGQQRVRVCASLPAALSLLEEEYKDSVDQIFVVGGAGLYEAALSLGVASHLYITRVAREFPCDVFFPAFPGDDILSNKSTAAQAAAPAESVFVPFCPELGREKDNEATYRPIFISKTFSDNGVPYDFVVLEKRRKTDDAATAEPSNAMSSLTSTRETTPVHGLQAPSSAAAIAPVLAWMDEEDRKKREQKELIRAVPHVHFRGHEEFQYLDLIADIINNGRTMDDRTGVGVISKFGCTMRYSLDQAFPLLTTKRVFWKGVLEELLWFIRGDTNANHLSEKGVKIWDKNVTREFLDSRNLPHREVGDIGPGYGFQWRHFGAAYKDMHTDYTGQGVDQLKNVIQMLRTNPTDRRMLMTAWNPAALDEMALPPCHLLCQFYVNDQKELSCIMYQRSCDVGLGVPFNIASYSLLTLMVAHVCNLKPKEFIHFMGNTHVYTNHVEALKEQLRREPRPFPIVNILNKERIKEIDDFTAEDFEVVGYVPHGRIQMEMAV
Description: Inhibitory concentration against isolated Toxoplasma gondii DHFR (dihydrofolate reductase)

NCI-H226 = assay: Cytotoxicity against non small cell lung cancer NCI-H226 tumor cell lines.; assay type: functional; conditions: Homo sapiens
Thymidylate synthase [17] = biological target: T2, Thymidylate synthase; assay: Inhibitory concentration against human TS
[18] = biological target: Trifunctional purine biosynthetic protein adenosine-3 (Homo sapiens, UniProt P22102); assay: Inhibition against GAR transformylase; In active
[19] = biological target: T6, Bifunctional purine biosynthesis protein ATIC (Homo sapiens, UniProt P31939); assay: Inhibition against […]-4-carboxamide ribonucleotide formyltransferase (AICAR formyltransferase); In active
FaDu = assay: Growth inhibition of human squamous cell carcinoma FaDu in culture; assay type: functional; conditions: read-out: ED50 (the source's name)
[20] = biological target: T6, Bifunctional purine biosynthesis protein ATIC; assay: Inhibition against […]-4-carboxamide ribonucleotide formyltransferase (AICAR formyltransferase); inactive
Thymidylate synthase [21] = biological target: T2, Thymidylate synthase; assay: Inhibitory concentration against human Thymidylate synthase(TS)
Homo sapiens [22] = species on record: Homo sapiens; assay: Ratio between Vmax and Km for compound as substrate for recombinant human folyl-poly-glutamate synthase (FPGS); assay type: ADME; conditions: in vivo
Dihydrofolate reductase [23] = biological target: Dihydrofolate reductase (Escherichia coli, UniProt P0ABQ4)
Description: Inhibitory concentration against isolated Escherichia coli Dihydrofolate reductase

[24] = substrate: Cc1nc(N)nc2c1c(CCc1ccc(C(=O)N[C@@H](CCC(=O)O)C(=O)O)cc1)cn2Cc1ccccc1; assay: (§1) Activity as substrate for recombinant human folyl-poly-glutamate synthase (FPGS).
[25] = substrate: Cc1nc(N)nc2[nH]cc(CCc3ccc(C(=O)N[C@@H](CCC(=O)O)C(=O)O)cc3)c12; assay: as §1

Sequence of Dihydrofolate reductase (Lactobacillus casei, UniProt P00381) (P00381 whole entry): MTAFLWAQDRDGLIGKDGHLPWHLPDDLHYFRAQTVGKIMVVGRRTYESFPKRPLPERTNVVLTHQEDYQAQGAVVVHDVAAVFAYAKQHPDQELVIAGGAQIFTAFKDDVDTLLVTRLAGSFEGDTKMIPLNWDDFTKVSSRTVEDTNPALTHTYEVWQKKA
T2 sequence (P04818 whole entry): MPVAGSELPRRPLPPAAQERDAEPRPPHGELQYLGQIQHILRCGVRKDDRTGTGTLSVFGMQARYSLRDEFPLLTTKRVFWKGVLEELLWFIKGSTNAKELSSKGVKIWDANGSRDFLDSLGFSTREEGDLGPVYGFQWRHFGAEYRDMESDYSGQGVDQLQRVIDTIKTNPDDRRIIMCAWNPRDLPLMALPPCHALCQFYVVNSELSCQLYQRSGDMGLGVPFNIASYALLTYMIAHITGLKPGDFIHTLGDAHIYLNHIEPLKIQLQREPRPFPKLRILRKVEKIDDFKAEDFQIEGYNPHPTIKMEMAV
Sequence of Thymidylate synthase (Rattus norvegicus, UniProt P45352) (P45352 whole entry): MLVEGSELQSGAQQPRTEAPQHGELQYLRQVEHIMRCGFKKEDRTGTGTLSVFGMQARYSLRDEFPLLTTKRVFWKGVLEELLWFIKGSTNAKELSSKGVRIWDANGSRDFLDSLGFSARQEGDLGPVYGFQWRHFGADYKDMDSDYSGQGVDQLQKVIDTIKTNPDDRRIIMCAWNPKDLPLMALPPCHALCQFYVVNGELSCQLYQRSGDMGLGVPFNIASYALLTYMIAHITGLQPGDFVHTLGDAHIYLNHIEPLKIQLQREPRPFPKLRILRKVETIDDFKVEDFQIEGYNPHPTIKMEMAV
T6 sequence (P31939 whole entry): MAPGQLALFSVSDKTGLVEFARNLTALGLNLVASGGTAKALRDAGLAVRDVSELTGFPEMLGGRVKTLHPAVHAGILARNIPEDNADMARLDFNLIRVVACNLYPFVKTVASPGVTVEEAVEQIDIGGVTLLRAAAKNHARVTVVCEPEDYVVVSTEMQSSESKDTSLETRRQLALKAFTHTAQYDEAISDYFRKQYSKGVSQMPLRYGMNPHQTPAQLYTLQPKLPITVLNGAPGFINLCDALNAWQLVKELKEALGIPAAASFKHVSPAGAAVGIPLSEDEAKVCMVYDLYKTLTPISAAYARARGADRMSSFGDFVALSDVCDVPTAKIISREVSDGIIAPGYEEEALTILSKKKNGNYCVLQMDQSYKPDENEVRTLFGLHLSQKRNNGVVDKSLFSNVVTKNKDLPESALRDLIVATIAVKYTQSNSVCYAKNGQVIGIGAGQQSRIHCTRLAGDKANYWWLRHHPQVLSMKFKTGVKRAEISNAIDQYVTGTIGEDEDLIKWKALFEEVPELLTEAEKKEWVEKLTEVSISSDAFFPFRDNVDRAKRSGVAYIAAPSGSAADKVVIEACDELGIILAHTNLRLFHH
Sequence of Dihydrofolate reductase (Escherichia coli, UniProt P0ABQ4) (P0ABQ4 whole entry): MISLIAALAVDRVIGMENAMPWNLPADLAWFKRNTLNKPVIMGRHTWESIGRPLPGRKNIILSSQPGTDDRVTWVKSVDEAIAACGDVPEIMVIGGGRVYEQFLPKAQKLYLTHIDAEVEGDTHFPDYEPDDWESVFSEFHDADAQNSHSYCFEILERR
Sequence of Thymidylate synthase (Escherichia coli, UniProt C3SWJ7) (C3SWJ7 whole entry): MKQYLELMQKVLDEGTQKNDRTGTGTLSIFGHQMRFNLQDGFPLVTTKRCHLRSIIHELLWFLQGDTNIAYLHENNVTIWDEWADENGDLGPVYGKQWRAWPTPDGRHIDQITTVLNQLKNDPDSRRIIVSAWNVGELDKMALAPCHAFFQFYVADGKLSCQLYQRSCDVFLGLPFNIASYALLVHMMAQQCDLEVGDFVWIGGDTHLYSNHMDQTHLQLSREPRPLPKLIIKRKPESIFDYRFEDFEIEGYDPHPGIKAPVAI
Sequence of Trifunctional purine biosynthetic protein adenosine-3 (P22102 whole entry): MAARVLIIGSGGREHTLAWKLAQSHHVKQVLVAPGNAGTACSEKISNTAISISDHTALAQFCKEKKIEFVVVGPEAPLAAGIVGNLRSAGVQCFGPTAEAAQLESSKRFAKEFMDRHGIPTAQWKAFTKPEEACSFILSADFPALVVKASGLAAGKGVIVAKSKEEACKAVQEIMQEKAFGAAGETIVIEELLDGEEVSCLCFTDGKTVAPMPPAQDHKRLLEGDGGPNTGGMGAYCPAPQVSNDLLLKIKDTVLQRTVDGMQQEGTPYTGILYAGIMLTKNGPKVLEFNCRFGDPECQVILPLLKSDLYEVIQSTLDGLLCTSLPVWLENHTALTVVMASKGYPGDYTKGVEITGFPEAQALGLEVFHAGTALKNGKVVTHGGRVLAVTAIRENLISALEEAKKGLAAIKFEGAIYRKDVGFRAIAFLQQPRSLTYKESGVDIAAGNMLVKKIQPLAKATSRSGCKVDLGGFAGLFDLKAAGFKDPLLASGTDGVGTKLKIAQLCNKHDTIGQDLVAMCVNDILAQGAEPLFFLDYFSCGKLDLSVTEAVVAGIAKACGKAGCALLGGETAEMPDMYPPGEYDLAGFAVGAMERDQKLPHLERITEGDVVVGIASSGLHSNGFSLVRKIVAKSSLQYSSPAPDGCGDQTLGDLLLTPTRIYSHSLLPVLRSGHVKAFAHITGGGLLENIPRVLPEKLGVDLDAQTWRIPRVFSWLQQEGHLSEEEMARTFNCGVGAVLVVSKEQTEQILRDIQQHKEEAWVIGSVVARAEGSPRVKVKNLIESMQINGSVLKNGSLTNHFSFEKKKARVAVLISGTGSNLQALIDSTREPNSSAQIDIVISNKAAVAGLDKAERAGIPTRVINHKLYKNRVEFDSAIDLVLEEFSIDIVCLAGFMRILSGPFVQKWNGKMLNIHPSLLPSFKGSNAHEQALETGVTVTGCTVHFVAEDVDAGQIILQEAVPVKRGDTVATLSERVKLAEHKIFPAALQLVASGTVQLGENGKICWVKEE

Nc1nc(N)c2c(CNCc3ccc(C(=O)N[C@@H](CCC(=O)O)C(=O)O)cc3)coc2n1
EC50 (CCRF-CEM [1]): 30500 nM

Cc1nc(N)nc2[nH]cc(CCc3ccc(C(=O)N[C@@H](CCC(=O)O)C(=O)O)cc3)c12
EC50 (CCRF-CEM [2]): 158 nM | IC50 (Dihydrofolate reductase [3]): 800 nM | GI50 (SF-539): < 10 nM | GI50 (NCI-H460): < 10 nM | IC50 (Thymidylate synthase [4]): 1000 nM | GI50 (HCC 2998): < 10 nM | IC50 (Thymidylate synthase [5]): 2000 nM | GI50 (MOLT-4): < 10 nM | EC50 (CCRF-CEM [6]): 575 nM | EC50 (carcinoma cell line [7]): 7 nM | GI50 (HCT-116): 7110 nM | GI50 (MCF7): 169 nM | Vmax (Homo sapiens [8]): 0.17 | IC50 (Dihydrofolate reductase [9]): 24 nM | EC50 (carcinoma cell line [10]): 12.5 nM | IC50 (Dihydrofolate reductase [11]): 1200 nM | GI50 (ACHN): < 10 nM | IC50 (Thymidylate synthase [12]): 9000 nM | EC50 (CCRF-CEM [13]): 12.5 nM | IC50 (Thymidylate synthase [14]): 2000 nM | EC50 (CCRF-CEM [15]): 18.5 nM | IC50 [16]: 1200 nM | GI50 (NCI-H226): 61.4 nM

Nc1nc(N)c2c(CNc3ccc(C(=O)N[C@@H](CCC(=O)O)C(=O)O)cc3)coc2n1
IC50 (Thymidylate synthase [17]): > 200000 nM | IC50 [18]: Not Active | IC50 [19]: Not Active

CN(Cc1coc2nc(N)nc(N)c12)c1ccc(C(=O)N[C@@H](CCC(=O)O)C(=O)O)cc1 [FURO[2,3D]PYRIMIDINE ANTIFOLATE]
IC50 [18]: Not Active | EC50 (FaDu): 55 nM | IC50 [20]: Not Active | EC50 (CCRF-CEM [1]): 47 nM | IC50 (Thymidylate synthase [21]): > 200000 nM

Nc1nc(N)c2nc(CNc3ccc(C(=O)N[C@@H](CCC(=O)O)C(=O)O)cc3)cnc2n1 [AMINOPTERIN]
Vmax (Homo sapiens [8]): 1 | Ratio (Homo sapiens [22]): 0.21

Cc1nc2ccc(CN(C)c3ccc(C(=O)N[C@@H](CCC(=O)O)C(=O)O)s3)cc2c(=O)[nH]1 [RALTITREXED]
IC50 (Thymidylate synthase [5]): 900 nM | IC50 (Thymidylate synthase [12]): 8000 nM

Nc1nc2[nH]cc(CCc3ccc(C(=O)N[C@@H](CCC(=O)O)C(=O)O)cc3)c2c(=O)[nH]1 [PEMETREXED]
IC50 (Thymidylate synthase [4]): 110000 nM | IC50 (Thymidylate synthase [5]): 20000 nM | IC50 (Thymidylate synthase [12]): 20000 nM

Nc1nc(N)c2c(CCc3ccc(C(=O)N[C@@H](CCC(=O)O)C(=O)O)cc3)coc2n1
EC50 (CCRF-CEM [1]): 250 nM

Cc1cn([C@@H]2O[C@H](COP(=O)(O)O)[C@@H](O)[C@H]2O)c(=O)[nH]c1=O
IC50 (Dihydrofolate reductase [3]): 340000 nM | IC50 (Dihydrofolate reductase [9]): 350 nM | IC50 (Dihydrofolate reductase [11]): 15000 nM | IC50 (Dihydrofolate reductase [23]): 20 nM | IC50 [16]: 3400 nM

Cc1nc(N)nc2c1c(CCc1ccc(C(=O)N[C@@H](CCC(=O)O)C(=O)O)cc1)cn2Cc1ccccc1
IC50 (Dihydrofolate reductase [3]): > 19000 nM | IC50 (Thymidylate synthase [4]): > 16000 nM | IC50 (Thymidylate synthase [5]): > 16000 nM | IC50 (carcinoma cell line [7]): > 20000 nM | Vmax (Homo sapiens [8]): 0.65 | IC50 (Dihydrofolate reductase [9]): 19000 nM | IC50 (carcinoma cell line [10]): > 10000 nM | IC50 (Dihydrofolate reductase [11]): > 19000 nM | IC50 (Dihydrofolate reductase [23]): > 19000 nM | IC50 (Thymidylate synthase [12]): 310 nM | IC50 (CCRF-CEM [13]): > 10000 nM | IC50 (Thymidylate synthase [14]): 16000 nM | IC50 (CCRF-CEM [15]): > 20000 nM | Ratio (Homo sapiens [22]): 0.02 | IC50 [16]: > 19000 nM

B1: Folylpolyglutamate synthase, mitochondrial (Homo sapiens), Q05932 (protein)
chain: MSRARSHLRAALFLAAASARGITTQVAARRGLSAWPVPQEPSMEYQDAVRMLNTLQTNAGYLEQVKRQRGDPQTQLEAMELYLARSGLQVEDLDRLNIIHVTGTKGKGSTCAFTECILRSYGLKTGFFSSPHLVQVRERIRINGQPISPELFTKYFWRLYHRLEETKDGSCVSMPPYFRFLTLMAFHVFLQEKVDLAVVEVGIGGAYDCTNIIRKPVVCGVSSLGIDHTSLLGDTVEKIAWQKGGIFKQGVPAFTVLQPEGPLAVLRDRAQQISCPLYLCPMLEALEEGGPPLTLGLEGEHQRSNAALALQLAHCWLQRQDRHGAGEPKASRPGLLWQLPLAPVFQPTSHMRLGLRNTEWPGRTQVLRRGPLTWYLDGAHTASSAQACVRWFRQALQGRERPSGGPEVRVLLFNATGDRDPAALLKLLQPCQFDYAVFCPNLTEVSSTGNADQQNFTVTLDQVLLRCLEHQQHWNHLDEEQASPDLWSAPSPEPGGSASLLLAPHPPHTCSASSLVFSCISHALQWISQGRDPIFQPPSPPKGLLTHPVAHSGASILREAAAIHVLVTGSLHLVGGVLKLLEPALSQ
Km [24]: 37 µM | Km [25]: < 1 µM
